Reference: patent publication EP1561465A2, “Methods of use of fluoroquinolone compounds against bacteria” (LG Life Sciences, Ltd., priority 1999, dated 2001)
≈ marks a conversion by molar mass, not a printed value. Where two headings read alike, the source gives them in different places.

Legend:
Assay type in all cases: cell-based
Streptococcus pneumoniae [1] = experiment: MIC by broth microdilution (NCCLS), dried MicroScan panels, clinical isolates 1998-1999; details: for MIC90: Streptococcus pneumoniae
Streptococcus pneumoniae [2] = experiment: MIC by NCCLS reference broth microdilution, 450 respiratory tract pathogens; details: for MIC / MIC50 / MIC90: Streptococcus pneumoniae
Haemophilus influenzae [3] = experiment: MIC by broth microdilution (NCCLS), dried MicroScan panels, clinical isolates 1998-1999; details: for MIC90: Haemophilus influenzae
Moraxella catarrhalis = experiment: MIC by agar dilution (NCCLS), 411 isolates Buenos Aires 1998-99; details: Moraxella catarrhalis (n = 59)
[4] = system: Gram positive anaerobic and facultative anaerobic pathogens; experiment: microbe, parasite or virus in culture
[5] = MIC by agar dilution, Brucella HK agar, 491 anaerobic clinical isolates
Pseudomonas aeruginosa = experiment: MIC by agar dilution (NCCLS), 322 nosocomial Gram negative isolates, Athens 1998; details: n = 57 isolates
Haemophilus influenzae [6] = experiment: MIC by NCCLS reference broth microdilution, 450 respiratory tract pathogens; details: Haemophilus influenzae; for MIC90: read-out: MIC90
[7] = system: Staphylococcus epidermidis; experiment: MIC by NCCLS broth microdilution, 1100 Japanese clinical isolates 1997-1998; details: for MIC50 / MIC90: Staphylococcus epidermidis
Citrobacter freundii = experiment: as above
Acinetobacter spp. = experiment: MIC by agar dilution (NCCLS), 322 nosocomial Gram negative isolates, Athens 1998; details: n = 38 strains
Staphylococcus aureus = experiment: microbe, parasite or virus in culture
[8] = Streptococcus pneumoniae (302 isolates)
[9] = Streptococcus pneumoniae (n = 100)
[10] = erythromycin resistant M phenotype (n = 16)
[11] = penicillin intermediate (n = 16)
[12] = penicillin susceptible (n = 20)
[13] = Haemophilus influenzae (300 isolates)
[14] = Haemophilus influenzae (n = 100)
[15] = Staphylococcus epidermidis oxacillin resistant (n=43)
[16] = Staphylococcus epidermidis oxacillin susceptible (n=35)

In the case of `CO/N=C1\CN(c2nc3c(cc2F)c(=O)c(C(=O)O)cn3C2CC2)CC1CN` (racemic) [Gemifloxacin, (R,S)-7-(3-aminomethyl-4-methoxyiminopyrrolidin-1-yl)-1-cyclopropyl-6-fluoro-4-oxo-1,4-dihydro-1,8-naphthyridine-3-carboxylic acid], the “more active than grepafloxacin” value (Streptococcus pneumoniae [1]; S. pneumoniae) is reported as “two-fold”, the “more active than levofloxacin” value (Streptococcus pneumoniae [1]; S. pneumoniae) is reported as 16 fold and the “more active than trovafloxacin” value (Streptococcus pneumoniae [1]; S. pneumoniae) is reported as “four-fold”. For the same molecule, the MIC50 (Streptococcus pneumoniae [1]; [8]) was 0.03 µg/mL (≈ 0.077 µM), the “MIC Range” value (Streptococcus pneumoniae [1]; [8]) was no more than 0.0015 to 0.12 µg/mL and the MIC90 (Streptococcus pneumoniae [1]; Erythromycin-resistant (86)) was 0.03 µg/mL (≈ 0.077 µM). The MIC90 (Streptococcus pneumoniae [1]; Erythromycin-sensitive (216)) was 0.06 µg/mL (≈ 0.154 µM), the MIC90 (Streptococcus pneumoniae [1]; Penicillin-intermediate (124)) was 0.03 µg/mL (≈ 0.077 µM) and the MIC90 (Streptococcus pneumoniae [1]; Penicillin-resistant (80)) was 0.06 µg/mL (≈ 0.154 µM). For the same molecule, the MIC90 (Streptococcus pneumoniae [1]; Penicillin-sensitive (98)) was 0.06 µg/mL (≈ 0.154 µM), the MIC90 (Streptococcus pneumoniae [1]; [8]) was 0.06 µg/mL (≈ 0.154 µM) and the “times more potent than all comparator agents” value (Streptococcus pneumoniae [2]; S. pneumoniae) was 4-64 times. For the same molecule, the MIC (Streptococcus pneumoniae [2]; [9]) was 0.0075 to 0.03 µg/mL (≈ 0.0193 to 0.077 µM), the MIC50 (Streptococcus pneumoniae [2]; [9]) was 0.015 µg/mL (≈ 0.0385 µM) and the MIC90 (Streptococcus pneumoniae [2]; [9]) was 0.03 µg/mL (≈ 0.077 µM). It also gave an MIC (Streptococcus pneumoniae [2]; [10]) of 0.015 to 0.05 µg/mL (≈ 0.0385 to 0.128 µM), an MIC50 (Streptococcus pneumoniae [2]; [10]) of 0.015 µg/mL (≈ 0.0385 µM) and an MIC90 (Streptococcus pneumoniae [2]; [10]) of 0.03 µg/mL (≈ 0.077 µM). The MIC (Streptococcus pneumoniae [2]; erythromycin resistant MLSB phenotype (n = 16)) was 0.0075 to 0.03 µg/mL (≈ 0.0193 to 0.077 µM), the MIC (Streptococcus pneumoniae [2]; multi-drug resistant (n = 16)) was 0.0075 to 0.03 µg/mL (≈ 0.0193 to 0.077 µM) and the MIC50 (Streptococcus pneumoniae [2]; multi-drug resistant (n = 16)) was 0.015 µg/mL (≈ 0.0385 µM). The MIC90 (Streptococcus pneumoniae [2]; multi-drug resistant (n = 16)) was 0.03 µg/mL (≈ 0.077 µM), the MIC (Streptococcus pneumoniae [2]; [11]) was 0.0075 to 0.03 µg/mL (≈ 0.0193 to 0.077 µM) and the MIC50 (Streptococcus pneumoniae [2]; [11]) was 0.015 µg/mL (≈ 0.0385 µM). For the same molecule, the MIC90 (Streptococcus pneumoniae [2]; [11]) was 0.015 µg/mL (≈ 0.0385 µM), the MIC (Streptococcus pneumoniae [2]; penicillin resistant (n = 18)) was 0.0075 to 0.06 µg/mL (≈ 0.0193 to 0.154 µM) and the MIC50 (Streptococcus pneumoniae [2]; penicillin resistant (n = 18)) was no more than 0.0075 µg/mL. It also gave an MIC90 (Streptococcus pneumoniae [2]; penicillin resistant (n = 18)) of 0.06 µg/mL (≈ 0.154 µM), an MIC (Streptococcus pneumoniae [2]; [12]) of 0.0075 to 0.03 µg/mL (≈ 0.0193 to 0.077 µM) and an MIC50 (Streptococcus pneumoniae [2]; [12]) of 0.015 µg/mL (≈ 0.0385 µM). The MIC90 (Streptococcus pneumoniae [2]; [12]) was 0.03 µg/mL (≈ 0.077 µM), the “activity superior to that of levofloxacin” value (Haemophilus influenzae [3]; H. influenzae) was “four-fold” and the MIC50 (Haemophilus influenzae [3]; [13]) was 0.004 µg/mL (≈ 0.0103 µM). For the same molecule, the “MIC Range” value (Haemophilus influenzae [3]; [13]) was no more than 0.0015 to 0.12 µg/mL, the MIC90 (Haemophilus influenzae [3]; [13]) was 0.008 µg/mL (≈ 0.0205 µM) and the MIC90 (Haemophilus influenzae [3]; β-lactamase negative (234)) was 0.008 µg/mL (≈ 0.0205 µM). For the same molecule, the MIC90 (Haemophilus influenzae [3]; β-lactamase positive (66)) was 0.03 µg/mL (≈ 0.077 µM), the “MIC Range” value (Moraxella catarrhalis) was no more than 0.004 to 0.016 µg/mL and the MIC90 (Moraxella catarrhalis; read-out: MIC90) was 0.008 µg/mL (≈ 0.0205 µM). The MIC ([4]; Bifidobacterium adolescentis, ATCC15703) was 0.25 µg/mL (≈ 0.642 µM), the MIC ([4]; Bifidobacterium bifidum, JCM1255) was 2 µg/mL (≈ 5.14 µM) and the MIC ([4]; Bifidobacterium breve, ATCC15700) was 1 µg/mL (≈ 2.57 µM). The MIC ([4]; Bifidobacterium longum, ATCC15707) was 1 µg/mL (≈ 2.57 µM), the MIC ([4]; Bifidobacterium pseudolongum, ATCC25526) was 1 µg/mL (≈ 2.57 µM) and the MIC ([4]; Clostridioides difficile) was 2 µg/mL (≈ 5.14 µM). For the same molecule, the MIC ([4]; Clostridium perfringens, ATCC13124) was 0.06 µg/mL (≈ 0.154 µM), the MIC ([4]; Clostridium septicum, ATCC12464) was 0.06 µg/mL (≈ 0.154 µM) and the MIC ([4]; Cutibacterium acnes, ATCC11828) was 0.25 µg/mL (≈ 0.642 µM). It also gave an MIC ([4]; Eggerthella lenta, ATCC25559) of 0.25 µg/mL (≈ 0.642 µM), an MIC ([4]; Finegoldia magna, ATCC29328) of no more than 0.03 µg/mL and an MIC ([4]; Gemella morbillorum, ATCC27824) of 0.25 µg/mL (≈ 0.642 µM). It also gave an MIC ([4]; Lacticaseibacillus casei, JCM1134) of no more than 0.03 µg/mL, an MIC ([4]; Lactiplantibacillus plantarum, JCM1149) of 2 µg/mL (≈ 5.14 µM) and an MIC ([4]; Lactobacillus acidophilus, JCM1132) of 0.5 µg/mL (≈ 1.28 µM). For the same molecule, the MIC ([4]; Levilactobacillus brevis, JCM1059) was 0.5 µg/mL (≈ 1.28 µM), the MIC ([4]; Ligilactobacillus salivarius, JCM1231) was 0.06 µg/mL (≈ 0.154 µM) and the MIC ([4]; Limosilactobacillus reuteri, JCM1112) was 0.25 µg/mL (≈ 0.642 µM). For the same molecule, the MIC ([4]; Limosilactobacillus reuteri, JCM1173) was 0.25 µg/mL (≈ 0.642 µM), the MIC ([4]; Paraclostridium sordellii, ATCC9714) was 0.5 µg/mL (≈ 1.28 µM) and the MIC ([4]; Parvimonas micra) was 0.125 µg/mL (≈ 0.321 µM). For the same molecule, the MIC ([4]; Peptoniphilus asaccharolyticus) was 0.125 µg/mL (≈ 0.321 µM), the MIC ([4]; Peptoniphilus indolicus) was no more than 0.03 µg/mL and the MIC ([4]; Peptostreptococcus anaerobius, ATCC27337) was 0.06 µg/mL (≈ 0.154 µM). For the same molecule, the MIC ([4]; Schaalia odontolytica) was 4 µg/mL (≈ 10.3 µM), the MIC ([4]; Staphylococcus saccharolyticus, ATCC14953) was no more than 0.03 µg/mL and the MIC ([4]; Streptococcus constellatus, ATCC27823) was no more than 0.03 µg/mL. The MIC ([4]; Streptococcus intermedius, ATCC27335) was 0.06 µg/mL (≈ 0.154 µM), the MIC ([4]; Thomasclavelia ramosa, ATCC25582) was 0.5 µg/mL (≈ 1.28 µM) and the MIC90 ([5]; clinical isolates of Bacteroides spp., Prevotella bivia and other Prevotella spp.) was 8 to 32 µg/mL (≈ 20.5 to 82.2 µM). The MIC ([5]; read-out: MIC90s) was 0.125 to 0.5 µg/mL (≈ 0.321 to 1.28 µM), the MIC50 (Pseudomonas aeruginosa) was 1 µg/mL (≈ 2.57 µM) and the MIC90 (Pseudomonas aeruginosa) was greater than 64 µg/mL. The MIC (Haemophilus influenzae [6]; [14]) was 0.0075 to 0.06 µg/mL (≈ 0.0193 to 0.154 µM), the MIC50 (Haemophilus influenzae [6]; [14]) was no more than 0.0075 µg/mL and the MIC90 (Haemophilus influenzae [6]; [14]) was no more than 0.00075 µg/mL. The MIC (Haemophilus influenzae [6]; β-lactamase negative (n = 80)) was 0.0075 to 0.015 µg/mL (≈ 0.0193 to 0.0385 µM), the MIC50 (Haemophilus influenzae [6]; β-lactamase negative (n = 80)) was no more than 0.0075 µg/mL and the MIC90 (Haemophilus influenzae [6]; β-lactamase negative (n = 80)) was no more than 0.0075 µg/mL. It also gave an MIC (Haemophilus influenzae [6]; β-lactamase positive (n = 20)) of 0.0075 to 0.06 µg/mL (≈ 0.0193 to 0.154 µM), an MIC50 (Haemophilus influenzae [6]; β-lactamase positive (n = 20)) of no more than 0.0075 µg/mL and an MIC90 (Haemophilus influenzae [6]; β-lactamase positive (n = 20)) of 0.015 µg/mL (≈ 0.0385 µM). For the same molecule, the “MIC Range” value [7, 15] was 0.032 to 4 µg/mL, the “MIC Range” value [7, 16] was no more than 0.008 to 2 µg/mL and the MIC50 [7, 15] was 0.5 µg/mL (≈ 1.28 µM). For the same molecule, the MIC90 [7, 15] was 2 µg/mL (≈ 5.14 µM), the MIC50 [7, 16] was 0.032 µg/mL (≈ 0.0822 µM) and the MIC90 [7, 16] was 0.5 µg/mL (≈ 1.28 µM). The MIC50 (Citrobacter freundii; Citrobacter freundii) was 0.125 µg/mL (≈ 0.321 µM), the MIC90 (Citrobacter freundii; Citrobacter freundii (n=39)) was 2 µg/mL (≈ 5.14 µM) and the “MIC Range” value (Citrobacter freundii; Citrobacter freundii (n=39)) was 0.016 to 4 µg/mL. For the same molecule, the MIC50 (Acinetobacter spp.; Acinetobacter) was 2 µg/mL (≈ 5.14 µM), the MIC90 (Acinetobacter spp.; Acinetobacter) was 32 µg/mL (≈ 82.2 µM) and the “MIC Range” value (Acinetobacter spp.) was 0.06 to 32 µg/mL. The “MIC Range” value (Staphylococcus aureus; Methicillin-resistant (38)) was 0.031 to 32 µg/mL, the “MIC Range” value (Staphylococcus aureus; Methicillin-susceptible (9)) was 0.031 to 0.25 µg/mL and the “increase of MIC” value (Staphylococcus aureus; S. aureus KU2240 with a single mutation in NorA, DNA gyrase or topoisomerase IV) was 2-4 fold. The MIC90 (Staphylococcus aureus; Staphylococcus aureus, Methicillin-susceptible (9), read-out: MIC90) was 0.25 µg/mL (≈ 0.642 µM), the MIC (Staphylococcus aureus; Staphylococcus aureus, S. aureus KU2240, mutant type Wild (wild strain)) was 0.031 µg/mL (≈ 0.0796 µM) and the MIC (Staphylococcus aureus; Staphylococcus aureus, S. aureus KU2240, read-out: MIC) was 0.031 µg/mL (≈ 0.0796 µM). It also gave an MIC (Staphylococcus aureus; Staphylococcus aureus, S. aureus KU2241, mutant type NorA (efflux-mediated quinolone resistant)) of 0.063 µg/mL (≈ 0.162 µM), an MIC (Staphylococcus aureus; Staphylococcus aureus, S. aureus KU2242, mutant type T (DNA topoisomerase IV)) of 0.063 µg/mL (≈ 0.162 µM) and an MIC (Staphylococcus aureus; Staphylococcus aureus, S. aureus KU2244, mutant type G (DNA gyrase)) of 0.125 µg/mL (≈ 0.321 µM). It also gave an MIC (Staphylococcus aureus; Staphylococcus aureus, S. aureus KU2246, mutant type T (DNA topoisomerase IV)) of 0.125 µg/mL (≈ 0.321 µM).
